Non-standard residues stand in square brackets, D forms with d. Residues, ends and D or L forms follow the SMILES beside them. Nle = CCCC[C@H](N)C(=O)O
Legend:
[1] = tested on: HaCaT cells; assay: Cytotoxicity on human keratinocytes, MTT assay; type: cell-based; conditions: 3.12–12.5 μM, 2 h and 24 h
Procedure: The human immortalized keratinocytes HaCaT cells were purchased from AddexBio (San Diego, CA, USA) and cultured in Dulbecco’s modified Eagle’s medium supplemented with 4 mM glutamine (DMEMg), 10% heat-inactivated fetal bovine serum (FBS), and 0.1 mg/mL of penicillin and streptomycin, at 37 °C and 5% CO2, in 25 cm^2 or 75 cm^2 flasks. The in vitro MTT [3-(4,5-dimethylthiazol-2-yl)-2,5-diphenyltetrazolium bromide] assay, based on the reduction of the yellow tetrazolium salt MTT to the purple formazan by viable cells with active metabolism, was used to evaluate the peptide cytotoxicity on HaCaT cells, as previously described in [27]. Specifically, 4 × 10^4 HaCaT cells, suspended in DMEMg supplemented with 2% FBS were plated in a 96-well microtiter plate. After overnight incubation, at 37 °C in a 5% CO2 atmosphere, HaCaT cells were treated for 2 h or 24 h with fresh serum free medium containing the peptide [Nle^1, DLeu^9, DLys^10]TL in a concentration range from 3.12 to 100 μM. […] Formazan crystals were dissolved using acidified isopropanol, and the absorbance of each well was measured at 570 nm using a microplate reader (Infinite M200; Tecan, Salzburg, Austria). The number of viable cells was proportional to the intensity of purple color and was expressed as percentage compared to that of untreated control cells (100%). […]

[2] = Peptide aggregation in aqueous solution, Nile Red; type: physicochemical; conditions: Nile Red 500 nM, 1–200 μM peptide, 1 h equilibration at room temperature, fluorescence, triplicate, Boltzmann fit
Procedure: Nile Red (NR) was used as fluorescent probe to monitor the aggregation in solution [51]. NR is not very soluble in water and has a large preference to move into hydrophobic environment as aggregates, producing a blue shift and hyperchromic effect. The peptide stock (400 μM) was prepared in 1,1,1,3,3,3-hexafluoro-2-propanol (HFIP) as solvent and different aliquots were taken to prepare each peptide solution at different concentrations (1, 5, 10, 15, 20, 30, 50, 100, and 200 μM). Then, HFIP was removed under nitrogen stream, 1 mL of water was added, and the solution was sonicated for 15 min and freeze-dried. Finally, the peptide powders were dissolved with a solution of 500 nM of NR in water and equilibrated for 1 h at room temperature. Emission spectra for each solution were measured between 570 and 700 nm by a Cary Eclipse Varian spectrometer (San Diego, CA, USA), setting a slit width of 5 nm and an excitation wavelength of 550 nm and a 10 nm slit width. The measurements were performed in triplicate. The data were analyzed by plotting the maximum emission fluorescence corresponding wavelength (y) as a function of peptide concentration (x) and fitting with the sigmoidal Boltzmann equation as described previously.

[3] = Peptide aggregation in LUVs, Thioflavin T; type: physicochemical; conditions: LUVs DOPG/CL (58/42), 0.1 mM lipid
Procedure: Regarding peptide aggregation in LUVs, was monitored using the Thioflavin T as fluorescent probe. LUVs were prepared using the extrusion method. Firstly, the lipid films (final concentration of 0.1 mM), made of DOPG, CL (58/42 ratio in moles) and DOPG/DOPE/CL (63/23/12 ratio in moles), were prepared by dissolving an appropriate amount of lipids in chloroform. The solvent was removed under nitrogen stream, water was added, and the film lipids were freeze-dried. Then, the lipid films were hydrated with 100 mM NaCl, 10 mM Tris-HCl, 25 μM Tht buffer, pH 7.4, and vortexed for 1 h. Then, the lipid suspension was freeze-thawed 6 times and extruded 10 times through polycarbonate membranes with […] diameter pores to obtain LUVs. The aggregation of [Nle^1, DLeu^9, DLys^10]TL was monitored titrating LUVs with different peptide concentrations of 5, 10, 15, 20, 30, 50 μM. Spectra were recorded before and after the addition of peptide using a Varian Cary Eclipse fluorescence spectrometer, exciting the sample at 450 nm (slit width, 10 nm) and recording fluorescence emission at 482 nm (slit width, 5 nm). Aggregation was quantified according to this equation: %A= […] × 100, where Ff indicates the value of fluorescence after peptide addition, F0 the fluorescence in the absence of peptide and Fmax is the fluorescence maximum obtained immediately after peptide addition.

[4] = in vitro; conditions: male, human, 90% human serum (from human male AB plasma)
Procedure: The peptide was mixed with 90% of human serum at a final concentration of 200 μM and incubated at 37 °C [27]. Aliquots of the mixture were taken at time intervals of 15, 45, 75, 90 and 120 min. The serum protein was removed by the precipitation with acetonitrile (MeCN) and centrifuged at 13,000 rpm for 15 min. Then, the supernatant was taken and analyzed by ultra-high performance liquid chromatography (UHPLC) using a Phenomenex Kinetex column (4.6 mm × 150 mm, 5 μm, C18) and a linear gradient from 10 to 90% of MeCN (0.1% TFA) in water (0.1% TFA) over 20 min. The percentage of the intact peptide was calculated by integrating the peak area of the UHPLC chromatogram.

In the case of `CCCC[C@H](N)C(=O)N[C@@H](Cc1ccccc1)C(=O)N[C@H](C(=O)N1CCC[C@H]1C(=O)N[C@@H](Cc1c[nH]c2ccccc12)C(=O)N[C@@H](Cc1ccccc1)C(=O)N[C@@H](CO)C(=O)N[C@@H](CCCCN)C(=O)N[C@@H](Cc1ccccc1)C(=O)N[C@H](CC(C)C)C(=O)N[C@H](CCCCN)C(=O)N[C@@H](CCCNC(=N)N)C(=O)N[C@H](C(=O)N[C@@H](CC(C)C)C(N)=O)[C@@H](C)CC)C(C)C` [[Nle^1, DLeu^9, DLys^10]TL] (H-[Nle]FVPWFSKF[dL][dK]RIL-NH2), the “effect on human keratinocytes viability” value [1] is reported as “only a slight reduction”, the “critical aggregation concentration (CAC)” value [2] is reported as 38.9 µM and the “aggregation (ThT)” value ([3]; 5 μM peptide, pH 7.4, 25 μM ThT fluorescence) is reported as ~ 22%. For the same molecule, the “aggregation (ThT)” value ([3]; 30 μM peptide, pH 7.4, ThT fluorescence) was “completely aggregated”, the remaining at 0.75 h, 200 μM [4] was ~75% and the remaining at 2 h, 200 μM [4] was ~50%.

From PMC9598925, “Synthetic Amphipathic β-Sheet Temporin-Derived Peptide with Dual Antibacterial and Anti-Inflammatory Activities” (Antibiotics, 2022)
